Source: patent US8895599B2, “Lipoprotein lipase-activating compositions comprising benzene derivates” (Otsuka Pharmaceutical Factory, Inc., priority 2008, dated 2014)

| SMILES | melting point |
| --- | --- |
| COc1cc(-c2nc3ccccn3c2C)ccc1OCc1ccccc1.Cl | 241 to 243 °C |
| COc1cc(-c2cn3ccccc3n2)ccc1O.Cl | 276 to 278 °C |
| COc1cc(-c2nc3sccn3c2C)ccc1OCc1ccccc1.Cl | 228 to 230 °C |
| COc1cc(-c2nc3ccccn3c2Cl)ccc1OCc1ccccc1 [Example 2] | 103 to 104 °C |
| COc1cc(-c2nc3ccccn3c2Br)ccc1OCc1ccccc1 [Example 3] | 115 to 117 °C |
| COc1cc(-c2cn3ccccc3n2)ccc1OCc1ccc(F)cc1 [Example 6] | 144 to 146 °C |
| COc1cc(-c2cn3ccccc3n2)ccc1OCc1ccc(C(F)(F)F)cc1 [Example 7] | 172 to 173 °C |
| COc1cc(-c2cn3ccccc3n2)ccc1OCc1cc(F)ccc1C(F)(F)F [Example 8] | 125 to 126 °C |
| COc1cc(-c2cn3ccccc3n2)ccc1OCc1ccc(C)cc1 [Example 9] | 155 to 157 °C |
| COc1cc(-c2cnc3ccccn23)ccc1OCc1ccccc1 [Example 12, 3-(4-benzyloxy-3-methoxyphenyl)imidazo[1,2-a]pyridine] | 129 to 131 °C |
| c1ccc(COc2ccc(-c3cn4ccccc4n3)cc2)cc1 [Example 13] | 171 to 173 °C |
| COc1cc(-c2cn3cc(C)ccc3n2)ccc1OCc1ccccc1 [Example 15] | 135 to 136 °C |
| COc1cc(-c2cn3ccc(C)cc3n2)ccc1OCc1ccccc1 [Example 16] | 171 to 173 °C |
| COc1cc(-c2cn3cc(C(F)(F)F)ccc3n2)ccc1OCc1ccccc1 [Example 17] | 172 to 173 °C |
| COc1cc(-c2cn3cc(Cl)ccc3n2)ccc1OCc1ccccc1 [Example 18] | 177 to 179 °C |
| COc1cc(-c2nc3ccccn3c2Cl)ccc1OCc1ccc(Cl)cc1 [Example 19] | 139 to 140 °C |
| COc1cc(-c2nc3ccccn3c2Cl)ccc1OCc1cccc(F)c1 [Example 20] | 104 to 105 °C |
| COc1cc(-c2cn3ccccc3n2)ccc1OCc1cccc(Cl)c1 [Example 21] | 114 to 115 °C |
| COc1cc(-c2cn3ccccc3n2)ccc1OCc1ccc(Cl)c(Cl)c1 [Example 22] | 138 to 139 °C |
| COc1cc(-c2cn3ccsc3n2)ccc1OCc1ccccc1 [Example 24] | 130 to 132 °C |
| COc1cc(-c2nc3ccccn3c2C)ccc1OCc1ccc(Cl)cc1 [Example 26] | 114 to 115 °C |
| COc1cc(-c2nc3ccccn3c2C)ccc1OCc1ccc(C)cc1 [Example 27] | 118 to 120 °C |
| COc1cc(-c2cn3cccnc3n2)ccc1OCc1ccccc1 [Example 28, 2-(4-benzyloxy-3-methoxyphenyl)imidazo[1,2-a]pyrimidine] | 168 to 169 °C |
| COc1cc(-c2cn3cccnc3n2)ccc1OCc1ccc(Cl)cc1 [Example 29] | 216 to 218 °C |
| COc1cc(-c2cn3ccccc3n2)ccc1OCc1ccc(Br)cc1 [Example 31] | 136 to 137 °C |

| SMILES | melting point |
| --- | --- |
| COc1cc(-c2cn3cc(C)ccc3n2)ccc1OCc1ccc(Cl)cc1 [Example 32] | 140 to 142 °C |
| COc1cc(-c2cn3c(C)cccc3n2)ccc1OCc1ccccc1 [Example 33] | 130 to 132 °C |
| COc1cc(-c2cn3cccc(C)c3n2)ccc1OCc1ccccc1 [Example 34] | 99 to 100 °C |
| COc1ccc(COc2ccc(-c3cn4ccccc4n3)cc2OC)cc1 [Example 35] | 165 to 167 °C |
| COc1ccc(COc2ccc(-c3cn4ccccc4n3)cc2)cc1 [Example 36] | 215 to 218 °C |
| Clc1ccc(COc2ccc(-c3cn4ccccc4n3)cc2)cc1 [Example 37] | 229 to 231 °C |
| COc1cc(-c2cn3ccccc3n2)ccc1OCc1ccc([N+](=O)[O-])cc1 [Example 38] | 197 to 200 °C |
| Cc1cc(-c2cn3ccccc3n2)ccc1OCc1ccccc1 [Example 39] | 123 to 124 °C |
| O=C(O)c1cc(-c2cn3ccccc3n2)ccc1OCc1ccccc1 [Example 40] | 239 to 240 °C |
| COc1cc(-c2cn3ccccc3n2)cc(OC)c1OCc1ccccc1 [Example 41] | 154 to 155 °C |
| COc1cc(-c2cn3ccsc3n2)ccc1OCc1ccc(Br)cc1 [Example 42] | 134 to 136 °C |
| COc1cc(-c2cn3cc(C)sc3n2)ccc1OCc1ccc(Cl)cc1 [Example 43] | 156 to 158 °C |
| COc1cc(-c2cn3cc(C(=O)O)ccc3n2)ccc1OCc1ccc(C#N)cc1 [Example 44] | 242 to 243 °C |
| COc1cc(-c2cn3cc(C(=O)O)ccc3n2)ccc1OCc1ccc(Cl)cc1 [Example 45] | 251 to 253 °C |
| COC(=O)c1ccc2nc(-c3ccc(OCc4ccc(Cl)cc4)c(OC)c3)cn2c1 [Example 46] | 182 to 183 °C |
| COC(=O)c1cc(-c2cn3ccccc3n2)ccc1OCc1ccccc1 [Example 47] | 179 to 181 °C |
| COc1cc(-c2cn3ccsc3n2)ccc1OCc1ccc(C#N)cc1 [Example 48] | 179 to 181 °C |
| COc1cc(-c2cn3ccsc3n2)ccc1OCc1ccc([N+](=O)[O-])cc1 [Example 49] | 189 to 191 °C |
| COC(=O)c1ccc(COc2ccc(-c3cn4ccccc4n3)cc2OC)cc1 [Example 50] | 125 to 126 °C |
| COc1cc(-c2cn3ccccc3n2)ccc1OCc1ccc(C(=O)O)cc1 [Example 51] | 245 to 247 °C |
| COc1cc(-c2cn3cc(Cl)cc(Cl)c3n2)ccc1OCc1ccccc1 [Example 52] | 163 to 165 °C |
| COc1cc(-c2cn3cc(C(F)(F)F)cc(Cl)c3n2)ccc1OCc1ccccc1 [Example 53] | 155 to 156 °C |
| COc1cc(-c2cn3cccc(O)c3n2)ccc1OCc1ccccc1 [Example 54] | 187 to 189 °C |
| COc1cc(-c2cn3cccc(OCc4ccccc4)c3n2)ccc1OCc1ccccc1 [Example 55] | 140 to 141 °C |
| COc1cc(-c2cn3cc(C)ccc3n2)ccc1OCc1ccc(Br)cc1 [Example 56] | 155 to 157 °C |

The next lines start with the values.

| melting point | SMILES |
| --- | --- |
| 168 to 169 °C | COc1cc(-c2cn3cc(C)ccc3n2)ccc1OCc1ccc(C#N)cc1 [Example 57] |
| 169 to 171 °C | Oc1cc(-c2cn3ccccc3n2)ccc1OCc1ccccc1 [Example 59] |
| 157 to 158 °C | CCOc1cc(-c2cn3ccccc3n2)ccc1OCc1ccccc1 [Example 60] |
| 126 to 127 °C | CCCOc1cc(-c2cn3ccccc3n2)ccc1OCc1ccccc1 [Example 61] |
| 122 to 124 °C | c1ccc(COc2ccc(-c3cn4ccccc4n3)cc2OCc2ccccc2)cc1 [Example 62] |
| 136 to 137 °C | COc1cc(-c2cn3cc(C)cc(Br)c3n2)ccc1OCc1ccccc1 [Example 63] |
| 136 to 138 °C | COc1cc(-c2cn3cc(C)cc(Br)c3n2)ccc1OCc1ccc(Cl)cc1 [Example 64] |
| 175 to 176 °C | COc1cc(-c2cn3cc(C)cc(Br)c3n2)ccc1OCc1ccc(C#N)cc1 [Example 65] |
| 175 to 176 °C | COc1cc(-c2cn3cc(Br)ccc3n2)ccc1OCc1ccccc1 [Example 66] |
| 206 to 208 °C | Oc1cc(-c2cn3ccccc3n2)ccc1OCc1ccc(Cl)cc1 [Example 67] |
| 136 to 137 °C | CCOc1cc(-c2cn3ccccc3n2)ccc1OCc1ccc(Cl)cc1 [Example 68] |
| 155 to 156 °C | COc1cc(-c2cn3cc(Br)cc(C)c3n2)ccc1OCc1ccc(Cl)cc1 [Example 69] |
| 166 to 167 °C | COc1cc(-c2cn3cc(Br)c(C)c(C)c3n2)ccc1OCc1ccc(Cl)cc1 [Example 70] |
| 121 to 123 °C | COc1cc(-c2cn3ccccc3n2)ccc1OCC1CC1 [Example 71] |
| 164 to 165 °C | c1ccc(Oc2ccc(-c3cn4ccccc4n3)cc2)cc1 [Example 72] |
| 132 to 133 °C | COc1cc(-c2cn3cccc(C)c3n2)ccc1OCc1ccc(Cl)cc1 [Example 73] |
| 144 to 146 °C | COc1cc(-c2cn3cccc(C)c3n2)ccc1OCc1ccc(C#N)cc1 [Example 74] |

| melting point | SMILES |
| --- | --- |
| 164 to 166 °C | COc1cc(-c2cn3cccc(OCc4ccccc4)c3n2)ccc1OCc1ccc(Cl)cc1 [Example 75] |
| 219 to 221 °C | COc1cc(-c2nc3ccccc3[nH]2)ccc1OCc1ccccc1 [Example 76, 2-(4-benzyloxy-3-methoxyphenyl)benzimidazole] |
| 204 to 206 °C | COc1cc(-c2nc3ccccc3[nH]2)ccc1OCc1ccc(Cl)cc1 [Example 77] |
| 108 to 109 °C | COc1cc(-c2nc3ccccc3s2)ccc1OCc1ccccc1 [Example 78, 2-(4-benzyloxy-3-methoxyphenyl)benzothiazole] |
| 190 to 192 °C | COc1cc(-c2c[nH]c(-c3ccccc3)n2)ccc1OCc1ccccc1 [Example 79] |
| 162 to 163 °C | COc1cc(-c2cn3cc(Cl)cc(Cl)c3n2)ccc1OCc1ccc(Cl)cc1 [Example 80] |
| 187 to 189 °C | COc1cc(-c2cn3cc(Cl)cc(Cl)c3n2)ccc1OCc1ccc(C#N)cc1 [Example 81] |
| 122 to 124 °C | COc1cc(-c2cn3cccc(C)c3n2)ccc1OCc1ccc(Br)cc1F [Example 82] |
| 147 to 148 °C | COc1cc(-c2cn3cc(C)ccc3n2)ccc1OCc1ccc(Br)cc1F [Example 83] |
| 109 to 111 °C | COc1cc(-c2cn3ccsc3n2)ccc1OCc1ccc(Br)cc1F [Example 84] |
| 169 to 170 °C | COc1cc(-c2cn3cccc(OCc4ccccc4)c3n2)ccc1OCc1ccc(C#N)cc1 [Example 86] |
| 108 to 109 °C | COc1cc(-c2cn3cccc(OCc4ccccc4)c3n2)ccc1OCc1ccc(Br)cc1F [Example 87] |
| 189 to 191 °C | COc1cc(-c2cn3cccc(OC)c3n2)ccc1OCc1ccccc1 [Example 88] |
| 132 to 134 °C | COc1cc(-c2cn3cccc(OC)c3n2)ccc1OCc1ccc(Cl)cc1 [Example 89] |
| 220 to 222 °C | COc1cc(-c2cn3cccc(O)c3n2)ccc1OCc1ccc(Cl)cc1 [Example 90] |
| 119 to 120 °C | COc1cc(-c2cn3ccccc3n2)ccc1OCc1ccc(Cl)cc1F [Example 91] |
